In brackets after ≈: the same amount, converted by molar mass. Read-outs that look alike come from different tables or passages of the source.
How the values were obtained:
[1] = test system: Acinetobacter baumannii; experiment: antibacterial MIC, microtiter dilution; settings: read-out: Minimal inhibitory concentration
[2] = test system: Staphylococcus aureus ATCC6538P; experiment: antibacterial MIC, microtiter dilution; settings: Staphylococcus aureus, ATCC6538P, read-out: Minimal inhibitory concentration
[3] = test system: S. aureus NorA; experiment: antibacterial MIC, microtiter dilution; settings: Staphylococcus aureus, read-out: Minimal inhibitory concentration
[4] = target: T1, PikCD50N-RhFRED (Streptomyces venezuelae, UniProt O87605, D50N); experiment: substrate binding assay, PikCD50N-RhFRED
T1 sequence (O87605 other isoform, or with tags, fused parts or gaps D50N): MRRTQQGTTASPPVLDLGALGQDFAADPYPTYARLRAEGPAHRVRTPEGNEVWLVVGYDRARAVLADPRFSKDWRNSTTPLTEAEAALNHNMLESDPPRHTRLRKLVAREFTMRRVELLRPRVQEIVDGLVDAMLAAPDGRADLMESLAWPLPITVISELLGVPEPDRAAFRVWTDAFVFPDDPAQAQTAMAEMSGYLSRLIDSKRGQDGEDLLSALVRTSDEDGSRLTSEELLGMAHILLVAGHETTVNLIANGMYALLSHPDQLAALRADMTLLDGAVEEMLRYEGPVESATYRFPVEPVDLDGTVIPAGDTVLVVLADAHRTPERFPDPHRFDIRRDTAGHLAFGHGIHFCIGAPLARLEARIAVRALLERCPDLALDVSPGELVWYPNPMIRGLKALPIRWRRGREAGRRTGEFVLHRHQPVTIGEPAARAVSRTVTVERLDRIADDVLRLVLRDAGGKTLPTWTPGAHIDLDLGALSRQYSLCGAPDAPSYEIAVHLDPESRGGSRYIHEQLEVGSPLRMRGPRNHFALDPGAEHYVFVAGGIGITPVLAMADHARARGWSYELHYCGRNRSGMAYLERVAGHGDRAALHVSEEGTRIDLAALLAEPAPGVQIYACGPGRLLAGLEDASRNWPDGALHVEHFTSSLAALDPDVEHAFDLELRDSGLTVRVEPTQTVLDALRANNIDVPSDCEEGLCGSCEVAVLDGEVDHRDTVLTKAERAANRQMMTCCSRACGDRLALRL
Description: The unnatural cyclic carbolide substrate desosaminyl cyclododecane was synthesized to mimic the structure of the natural substrate YC-17 using a recently developed synthetic strategy (Anzai Y, et al. Functional analysis of MycG and MycCI, cytochrome P450 enzymes involved in biosyntheis of mycinamicin macrolide antibiotics. Chem. Biol. 2008 15:950-959), which was subsequently employed as a general approach to derivatize diverse alcohols with desosamine (FIG. 6). The standard assay contains 5 μM PikCD50N—RhFRED, 0.5 mM substrate, 2.5 mM NADPH, 0.25 Unit of glucose-6-phosphate dehydrogenase, and 5 mM glucose-6-phosphate for NADPH regeneration in 100 μl of reaction buffer (50 mM NaH2PO4, pH 7.3, 1 mM EDTA, 0.2 mM dithioerythritol, and 10% glycerol). The reaction was carried out at 30° C. for 3 h and terminated by extraction using 3×200 μl of CHCl3. The resulting organic extract was dried by N2 and redissolved in 120 μl of methanol. The subsequent LC-MS analysis was performed on a ThermoFinnigan LTQ linear ion-trap instrument (Department of Pharmacology, University of Michigan) equipped with electrospray source and Surveyor HPLC system by using an XBridge™ C18 3.5 μm 150 mm reverse-phase HPLC column under following conditions: mobile phase (A=deionized water+0.1% formic acid, B=acetonitrile+0.1% formic acid), 20% B for 3 min, 20-100% B over 25 min, 100% B for 5 min, 100-20% B over 1 min, 20% B for 15 min; flow rate, 0.21 ml/min The substrate binding assays were performed following the previous report (Li et al., supra).
The decreased binding affinity of desosaminyl cyclododecane could result from […], an entropic penalty upon binding due to high conformational freedom of the saturated ring system, […]) lack of hydrophobic interactions between the functional groups on the macrolactone ring of […] and PikC active site residues, and/or […]) loss of some specific interactions with desosamine as observed in the co-crystal structure with PikC. […] Due to enhanced substrate conversion and ease of use in the absence of expensive exogenous redox partners, PikCD50N—RhFRED was employed to hydroxylate carbolide desosaminyl cyclododecane and all other substrates.

[5] = test system: Escherichia. coli TolC; experiment: antibacterial MIC, microtiter dilution; settings: Escherichia coli, read-out: Minimal inhibitory concentration, E. coli W3110 TolC disruption mutant; Mueller Hinten
[6] = target: T1, PikCD50N-RhFRED; type: biochemical; settings: for Number of products: Table 1
[7] = test system: Multidrug resistant S. aureus (MRSA); experiment: antibacterial MIC, microtiter dilution; settings: Staphylococcus aureus, MRSA, read-out: Minimal inhibitory concentration
[8] = test system: Bacillus subtillis DHS5333; experiment: antibacterial MIC, microtiter dilution; settings: Bacillus, DHS5333, read-out: Minimal inhibitory concentration
[9] = test system: Deinococcus radiodurans; experiment: antibacterial MIC, microtiter dilution; settings: 60 h
[10] = test system: Kocuria rhizophila ATCC9341; experiment: antibacterial MIC, microtiter dilution; settings: Kocuria rhizophila, ATCC9341, read-out: Minimal inhibitory concentration
[11] = test system: selected microbial targets; experiment: antibacterial activity, summary in words; type: cell-based
Description: All measurements were performed in duplicate.
The bioactivity of 8 was compared with its synthetic hydroxylated products. Unexpectedly, upon installation of a hydroxyl group at either the C7/C8 or C6/C9 positions (the four authentic standards, each of which contains a pair of diastereomers), the products lost activity. […] Further analysis of these carbolides, and direct investigation of their presumed binding to ribosomal targets will provide important insights into the impact of PikC-mediated regioselective hydroxylation for development of new small molecules for treatment of microbial pathogens and other human diseases.

[12] = read-out: Minimal inhibitory concentration, Deinococcus radiodurans, Special media, 30° C.

For `CC1CC(N(C)C)C(O)C(OC2CCCCCCCCCCCC2)O1` (stereo not shown) [Compound 8, 2-(Cyclotridecyloxy)-4-(dimethylamino)-6-methyltetrahydro-2H-pyran-3-ol], the MIC [1] was over 400 µM, the MIC [2] was 400 µM (≈ 142 µg/mL) and the MIC [3] was 200 µM (≈ 71.1 µg/mL). The Kd [4] was 218 µM, the MIC [5] was 50 µM (≈ 17.8 µg/mL) and the “share of monohydroxylated products oxidized at sites remote from desosamine” value ([6]; C7 and C6/C8 for the 12-membered ring, C7/C8 or C6/C9 for the 13-membered ring) was 94%. The Number of products ([6]; PikCD50N-RhFRED) was 6, the MIC [7] was 200 µM (≈ 71.1 µg/mL) and the MIC [8] was 200 µM (≈ 71.1 µg/mL). For the same compound, the MIC [9, 12] was 100 µM (≈ 35.6 µg/mL), the MIC [10] was 50 µM (≈ 17.8 µg/mL) and the “antibacterial activity in words” value [11] was “displayed some inhibitory activities”.
Compound `CC1CC(N(C)C)C(O)C(OC2CCCCCCCCCCCCC2)O1` (stereo not shown) [Compound 10, 2-(cyclotetradecyloxy)-4-(dimethylamino)-6-methyltetrahydro-2H-pyran-3-ol] has an MIC [1] of over 400 µM, an MIC [2] of over 400 µM and an MIC [3] of 400 µM (≈ 148 µg/mL). It also gave a Kd [4] of 289 µM, an MIC [5] of 50 µM (≈ 18.5 µg/mL) and a Number of products ([6]; PikCD50N-RhFRED) of 6. The MIC [7] was 400 µM (≈ 148 µg/mL), the MIC [8] was 200 µM (≈ 73.9 µg/mL) and the MIC [9, 12] was 50 µM (≈ 18.5 µg/mL). The MIC [10] was 50 µM (≈ 18.5 µg/mL) and the “antibacterial activity in words” value [11] was “displayed some inhibitory activities”.
Compound `CC1CC(N(C)C)C(O)C(OC2CCCCCCCCCCCCCC2)O1` (stereo not shown) [Compound 12, 2-(cyclopentadecyloxy)-4-(dimethylamino)-6-methyltetrahydro-2H-pyran-3-ol] has an MIC [1] of over 400 µM, an MIC [2] of 200 µM (≈ 76.7 µg/mL) and an MIC [3] of 100 µM (≈ 38.4 µg/mL). For the same compound, the Kd [4] was 243 µM, the MIC [5] was 50 µM (≈ 19.2 µg/mL) and the Number of products ([6]; PikCD50N-RhFRED) was 9. The MIC [7] was 100 µM (≈ 38.4 µg/mL), the MIC [8] was 100 µM (≈ 38.4 µg/mL) and the MIC [9, 12] was 50 µM (≈ 19.2 µg/mL). For the same compound, the MIC [10] was 50 µM (≈ 19.2 µg/mL) and the “antibacterial activity in words” value [11] was “displayed some inhibitory activities”.
For `CCCCCCC#CCCOC1OC(C)CC(N(C)C)C1O` (stereo not shown) [Compound 17, 2-(Dec-3-ynyloxy)-4-(dimethylamino)-6-methyltetrahydro-2H-pyran-3-ol], the MIC [1] was over 400 µM, the MIC [2] was over 400 µM and the MIC [3] was over 400 µM. The Kd [4] was 2900 µM, the MIC [5] was over 400 µM and the Number of products ([6]; PikCD50N-RhFRED) was 5. The MIC [7] was over 400 µM, the MIC [8] was over 400 µM and the MIC [9, 12] was over 400 µM. The MIC [10] was over 400 µM.
`CC1CC(N(C)C)C(O)C(Oc2ccc3ccc4cccc5ccc2c3c45)O1` (stereo not shown) [Compound 19, 4-(Dimethylamino)-6-methyl-2-(pyren-1-yloxy)tetrahydro-2H-pyran-3-ol] gave an MIC [1] of 100 µM (≈ 37.5 µg/mL), an MIC [2] of 25 µM (≈ 9.39 µg/mL) and an MIC [3] of 25 µM (≈ 9.39 µg/mL). The Kd [4] was over 5000 µM, the MIC [5] was 25 µM (≈ 9.39 µg/mL) and the “number of oxidized products” value ([6]; PikCD50N-RhFRED) was “single”. It also gave a Number of products ([6]; PikCD50N-RhFRED) of 1, an MIC [7] of 25 µM (≈ 9.39 µg/mL) and an MIC [8] of 6.2 µM (≈ 2.33 µg/mL). For the same compound, the MIC ([9]; read-out: Minimal inhibitory concentration) was 25 µM (≈ 9.39 µg/mL) and the MIC [10] was 25 µM (≈ 9.39 µg/mL).
